Measured values from patent publication US9555039B2, “Piperidine derivatives and compositions for the inhibition of nicotinamide phosphoribosyltransferase (NAMPT)” (Forma TM, LLC., priority 2011, dated 2017).

Key:
[1] = molecular target: T1, Recombinant His-tagged NAMPT (Homo sapiens, UniProt P43490); assay: Biochemical inhibition assay: NAMPT enzymatic reaction, NMN quantified by mass spectrometry; settings: 33 nM NAMPT, 1 μM NAM, 100 μM PRPP, 2.5 mM ATP, 30 minutes at room temperature; read-out: Biochem IC50
T1 construct: His; host or cells: E. coli
Summary of the method: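 Reaction 30 min at room temperature with 1 μM NAM, 100 μM PRPP, 2.5 mM ATP (final), quenched with formic acid. NMN quantified by RapidFire electrospray MS, normalized to L-cystathionine; IC50 from percent inhibition versus DMSO.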

A2780 cells = assay: In-vitro cell proliferation assay (SRB, 72 hours); assay type: cell-based; settings: Homo sapiens, sulforhodamine B (SRB) assay
Summary of the method: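 Viable cells measured by TCA fixation and SRB staining, absorbance 570 nm; % inhibition vs DMSO control after media-only background subtraction, interpolated between two bracketing concentrations.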

T1 sequence (P43490 whole entry): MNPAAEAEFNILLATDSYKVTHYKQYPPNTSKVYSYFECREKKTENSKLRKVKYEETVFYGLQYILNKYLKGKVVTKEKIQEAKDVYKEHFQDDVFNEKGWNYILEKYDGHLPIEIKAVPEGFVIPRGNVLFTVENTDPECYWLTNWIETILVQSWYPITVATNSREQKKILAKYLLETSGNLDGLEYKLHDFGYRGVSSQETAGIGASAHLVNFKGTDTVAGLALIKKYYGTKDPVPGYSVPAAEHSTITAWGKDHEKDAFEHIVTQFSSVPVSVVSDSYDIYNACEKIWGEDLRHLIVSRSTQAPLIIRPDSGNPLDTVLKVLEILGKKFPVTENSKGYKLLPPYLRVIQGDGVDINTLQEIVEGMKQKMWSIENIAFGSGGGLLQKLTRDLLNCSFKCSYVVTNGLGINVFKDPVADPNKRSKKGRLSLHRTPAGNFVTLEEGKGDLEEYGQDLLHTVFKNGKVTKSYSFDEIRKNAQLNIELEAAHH

SMILES | IC50 [1] [nM] | IC50 (A2780 cells) [nM]
O=C(NCCCCC1CCN(C(=O)c2ccc(N3CCOCC3)nc2)CC1)c1ccc2nccn2c1 [N-[4-(1-{[6-(morpholin-4-yl)pyridin-3-yl]carbonyl}piperidin-4-yl)butyl]imidazo[1,2-a]pyridine-6-carboxamide] | 12.9 | 5.9
O=C(NCCCCC1CCN(C(=O)c2ccc(N3CCOCC3)nc2)CC1)c1cc2ccncc2s1 [N-[4-(1-{[6-(morpholin-4-yl)pyridin-3-yl]carbonyl}piperidin-4-yl)butyl]thieno[2,3-c]pyridine-2-carboxamide] | 30.1 | 13.1
CC(C)c1ccc(C(=O)N2CCC(CCCCNC(=O)c3cc4cnccc4[nH]3)CC2)cn1 [N-[4-(1-{[6-(propan-2-yl)pyridin-3-yl]carbonyl}piperidin-4-yl)butyl]-1H-pyrrolo[3,2-c]pyridine-2-carboxamide] | 86.7 | 13.2
CC(C)c1ccc(C(=O)N2CCC(CCCCNC(=O)c3ccc4nccn4c3)CC2)cn1 [N-[4-(1-{[6-(propan-2-yl)pyridin-3-yl]carbonyl}piperidin-4-yl)butyl]imidazo[1,2-a]pyridine-6-carboxamide] | 38.7 | 26.1
CC(C)c1ccc(C(=O)N2CCC(CCCCNC(=O)c3cc4ccncc4s3)CC2)cn1 [N-[4-(1-{[6-(propan-2-yl)pyridin-3-yl]carbonyl}piperidin-4-yl)butyl]thieno[2,3-c]pyridine-2-carboxamide] | 138 | 100 to 1000
O=C(NCCCCC1CCN(C(=O)c2ccc(C(F)(F)F)nc2)CC1)c1cc2cnccc2[nH]1 [N-[4-(1-{[6-(trifluoromethyl)pyridin-3-yl]carbonyl}piperidin-4-yl)butyl]-1H-pyrrolo[3,2-c]pyridine-2-carboxamide] | 278 | 47.6
O=C(NCCCCC1CCN(C(=O)c2ccc(C(F)(F)F)nc2)CC1)c1ccc2nccn2c1 [N-[4-(1-{[6-(trifluoromethyl)pyridin-3-yl]carbonyl}piperidin-4-yl)butyl]imidazo[1,2-a]pyridine-6-carboxamide] | 91.9 | 93
O=C(NCCCCC1CCN(C(=O)c2ccc(C(F)(F)F)nc2)CC1)c1cc2ccncc2s1 [N-[4-(1-{[6-(trifluoromethyl)pyridin-3-yl]carbonyl}piperidin-4-yl)butyl]thieno[2,3-c]pyridine-2-carboxamide] | 90.3 | 414
O=C(NCCCCN1CCN(C(=O)c2ccccc2)CC1)c1cc2cnccc2[nH]1 [N-[4-(4-benzoylpiperazin-1-yl)butyl]-1H-pyrrolo[3,2-c]pyridine-2-carboxamide] | 16 | 94.7
O=C(NCCCCCCOc1ccc(Cl)cc1)c1ccc2ncccc2c1 [N-[6-(4-chlorophenoxy)hexyl]quinoline-6-carboxamide] | 25.9 | 9890
O=C(NCCC1CCN(S(=O)(=O)c2ccccc2)CC1)c1cc2cnccc2[nH]1 [N-{2-[1-(benzenesulfonyl)piperidin-4-yl]ethyl}-1H-pyrrolo[3,2-c]pyridine-2-carboxamide] | 50.9 | 1030
Cn1ccc(S(=O)(=O)N2CCC(CCCCNC(=O)c3cc4cnccc4[nH]3)CC2)n1 [N-{4-[1-(1-methyl-1H-pyrazole-3-sulfonyl)piperidin-4-yl]butyl}-1H-pyrrolo[3,2-c]pyridine-2-carboxamide] | 49.5 | 6.8
O=C(NCCCCC1CCN(S(=O)(=O)c2ccccc2)CC1)c1cc2cnccc2[nH]1 [N-{4-[1-(benzenesulfonyl)piperidin-4-yl]butyl}-1H-pyrrolo[3,2-c]pyridine-2-carboxamide] | 24.9 | 6.7
CC(C)S(=O)(=O)N1CCC(CCCCNC(=O)c2cc3cnccc3[nH]2)CC1 [N-{4-[1-(propane-2-sulfonyl)piperidin-4-yl]butyl}-1H-pyrrolo[3,2-c]pyridine-2-carboxamide] | 30.6 | 23
